Source: ChEMBL document CHEMBL4028887, “Improvement of Cell Permeability of Human Neuronal Nitric Oxide Synthase Inhibitors Using Potent and Selective 2-Aminopyridine-Based Scaffolds with a Fluorobenzene Linker” (J Med Chem, 2017)

Tests used:
[1] = target: Nitric oxide synthase 1 (Homo sapiens, UniProt P29475); assay: Inhibition of human neuronal NOS expressed in Escherichia coli using L-arginine as substrate assessed as reduction in NO production by measuring oxidation of oxyHb to metHb measured for 6 mins by hemoglobin- NO capture assay
[2] = target: T1, Nitric oxide synthase 3 (Homo sapiens, UniProt P29474); type: ADME
T1 sequence (P29474 whole entry): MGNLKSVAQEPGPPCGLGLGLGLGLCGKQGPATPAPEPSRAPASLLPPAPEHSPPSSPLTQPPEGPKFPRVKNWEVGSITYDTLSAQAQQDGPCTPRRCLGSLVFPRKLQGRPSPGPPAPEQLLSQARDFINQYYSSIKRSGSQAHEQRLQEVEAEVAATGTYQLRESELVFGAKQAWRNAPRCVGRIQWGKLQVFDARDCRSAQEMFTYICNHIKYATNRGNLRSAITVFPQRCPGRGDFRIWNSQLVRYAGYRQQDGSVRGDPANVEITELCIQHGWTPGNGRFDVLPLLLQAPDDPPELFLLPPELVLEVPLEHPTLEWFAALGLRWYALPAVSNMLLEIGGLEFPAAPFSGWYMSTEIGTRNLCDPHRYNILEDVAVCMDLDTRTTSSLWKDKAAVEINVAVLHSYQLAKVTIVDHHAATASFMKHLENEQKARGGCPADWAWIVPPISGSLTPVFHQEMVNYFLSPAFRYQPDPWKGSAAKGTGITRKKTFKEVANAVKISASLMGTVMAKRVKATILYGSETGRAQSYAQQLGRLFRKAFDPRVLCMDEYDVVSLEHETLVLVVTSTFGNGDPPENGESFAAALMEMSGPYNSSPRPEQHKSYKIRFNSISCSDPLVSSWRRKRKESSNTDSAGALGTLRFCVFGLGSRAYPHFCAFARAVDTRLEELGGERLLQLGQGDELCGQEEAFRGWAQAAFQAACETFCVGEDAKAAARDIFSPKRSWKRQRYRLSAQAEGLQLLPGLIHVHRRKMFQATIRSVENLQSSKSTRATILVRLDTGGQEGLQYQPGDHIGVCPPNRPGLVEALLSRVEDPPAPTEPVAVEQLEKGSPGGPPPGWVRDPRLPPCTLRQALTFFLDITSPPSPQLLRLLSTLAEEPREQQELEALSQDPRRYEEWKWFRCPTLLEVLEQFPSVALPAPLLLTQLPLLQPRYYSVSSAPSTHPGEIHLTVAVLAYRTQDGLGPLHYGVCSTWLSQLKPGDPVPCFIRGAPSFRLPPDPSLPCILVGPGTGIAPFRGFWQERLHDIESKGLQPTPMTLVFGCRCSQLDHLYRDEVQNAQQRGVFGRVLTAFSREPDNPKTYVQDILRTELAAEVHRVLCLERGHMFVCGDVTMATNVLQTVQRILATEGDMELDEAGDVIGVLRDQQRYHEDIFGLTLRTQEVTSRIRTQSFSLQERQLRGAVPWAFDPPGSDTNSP

[3] = target: Nitric oxide synthase 1 (Rattus norvegicus, UniProt P29476)
[4] = target: T2, Nitric oxide synthase, inducible (Mus musculus, UniProt P29477)
T2 sequence (P29477 whole entry): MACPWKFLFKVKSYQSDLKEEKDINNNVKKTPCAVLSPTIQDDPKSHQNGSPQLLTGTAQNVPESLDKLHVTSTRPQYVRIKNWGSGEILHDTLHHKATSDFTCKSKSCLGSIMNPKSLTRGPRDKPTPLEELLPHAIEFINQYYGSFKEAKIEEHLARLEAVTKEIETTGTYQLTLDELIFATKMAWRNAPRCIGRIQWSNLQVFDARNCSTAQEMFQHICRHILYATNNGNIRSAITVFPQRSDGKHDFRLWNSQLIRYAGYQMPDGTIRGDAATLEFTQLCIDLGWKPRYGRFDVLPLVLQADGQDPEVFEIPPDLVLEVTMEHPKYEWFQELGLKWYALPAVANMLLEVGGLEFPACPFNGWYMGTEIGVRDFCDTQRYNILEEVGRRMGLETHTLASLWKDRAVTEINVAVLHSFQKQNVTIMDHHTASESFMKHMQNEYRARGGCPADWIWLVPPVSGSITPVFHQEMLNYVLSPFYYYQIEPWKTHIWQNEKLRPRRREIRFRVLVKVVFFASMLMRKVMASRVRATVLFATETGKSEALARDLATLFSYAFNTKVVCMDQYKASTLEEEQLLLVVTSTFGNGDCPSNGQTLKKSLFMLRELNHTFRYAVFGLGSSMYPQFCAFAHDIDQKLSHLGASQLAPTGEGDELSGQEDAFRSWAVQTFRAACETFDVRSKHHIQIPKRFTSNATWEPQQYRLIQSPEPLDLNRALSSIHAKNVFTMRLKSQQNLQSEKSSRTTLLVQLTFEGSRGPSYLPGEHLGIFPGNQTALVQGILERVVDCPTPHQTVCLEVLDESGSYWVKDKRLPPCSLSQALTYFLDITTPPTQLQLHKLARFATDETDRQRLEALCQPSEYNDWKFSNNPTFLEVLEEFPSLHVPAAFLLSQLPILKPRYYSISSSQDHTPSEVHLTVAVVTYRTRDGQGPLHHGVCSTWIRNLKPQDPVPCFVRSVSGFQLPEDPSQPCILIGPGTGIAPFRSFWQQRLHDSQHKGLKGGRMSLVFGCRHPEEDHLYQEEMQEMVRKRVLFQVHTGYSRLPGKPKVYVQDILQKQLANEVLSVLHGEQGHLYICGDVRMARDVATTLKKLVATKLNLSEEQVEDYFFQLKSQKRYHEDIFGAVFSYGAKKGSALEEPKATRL

[5] = physchem; settings: PAMPA

Nitric oxide synthase 1 (Homo sapiens, UniProt P29475), sequence (P29475 whole entry): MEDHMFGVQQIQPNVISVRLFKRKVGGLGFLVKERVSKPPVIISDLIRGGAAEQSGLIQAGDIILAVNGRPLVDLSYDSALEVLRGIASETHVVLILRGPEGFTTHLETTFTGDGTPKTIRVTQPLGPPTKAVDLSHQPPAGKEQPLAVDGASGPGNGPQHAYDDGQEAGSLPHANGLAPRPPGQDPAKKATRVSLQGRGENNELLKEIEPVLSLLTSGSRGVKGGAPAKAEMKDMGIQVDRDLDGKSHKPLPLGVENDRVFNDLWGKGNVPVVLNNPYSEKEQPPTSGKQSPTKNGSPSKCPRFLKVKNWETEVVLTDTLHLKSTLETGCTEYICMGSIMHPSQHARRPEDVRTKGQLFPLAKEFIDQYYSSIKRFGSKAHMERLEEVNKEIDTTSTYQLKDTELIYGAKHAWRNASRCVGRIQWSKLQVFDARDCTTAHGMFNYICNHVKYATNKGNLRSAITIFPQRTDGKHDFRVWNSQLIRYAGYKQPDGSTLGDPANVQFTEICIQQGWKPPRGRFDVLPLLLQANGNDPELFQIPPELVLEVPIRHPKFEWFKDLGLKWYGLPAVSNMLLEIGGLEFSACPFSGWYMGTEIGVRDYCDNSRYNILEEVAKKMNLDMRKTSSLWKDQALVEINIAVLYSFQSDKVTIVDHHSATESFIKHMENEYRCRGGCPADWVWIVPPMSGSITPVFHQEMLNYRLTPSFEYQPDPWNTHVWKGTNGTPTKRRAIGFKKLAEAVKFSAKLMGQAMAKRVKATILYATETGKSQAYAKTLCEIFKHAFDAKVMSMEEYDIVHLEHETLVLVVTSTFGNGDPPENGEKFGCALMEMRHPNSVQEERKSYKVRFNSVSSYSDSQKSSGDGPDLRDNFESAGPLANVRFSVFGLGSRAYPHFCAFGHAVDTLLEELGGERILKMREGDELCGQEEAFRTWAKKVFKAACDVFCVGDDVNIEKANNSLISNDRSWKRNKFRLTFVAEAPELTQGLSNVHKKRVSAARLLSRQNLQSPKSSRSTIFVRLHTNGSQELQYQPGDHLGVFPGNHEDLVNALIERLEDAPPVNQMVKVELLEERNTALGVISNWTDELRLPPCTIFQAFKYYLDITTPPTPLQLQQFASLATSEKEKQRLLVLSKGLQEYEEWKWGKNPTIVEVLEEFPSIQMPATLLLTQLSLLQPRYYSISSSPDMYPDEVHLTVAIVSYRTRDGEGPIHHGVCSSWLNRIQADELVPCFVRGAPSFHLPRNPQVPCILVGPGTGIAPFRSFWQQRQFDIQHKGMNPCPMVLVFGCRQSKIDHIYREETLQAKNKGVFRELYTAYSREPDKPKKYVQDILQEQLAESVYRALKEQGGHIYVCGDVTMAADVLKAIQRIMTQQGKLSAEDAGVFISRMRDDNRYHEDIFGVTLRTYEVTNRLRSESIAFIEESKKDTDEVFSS
Nitric oxide synthase 1 (Rattus norvegicus, UniProt P29476), sequence (P29476 whole entry): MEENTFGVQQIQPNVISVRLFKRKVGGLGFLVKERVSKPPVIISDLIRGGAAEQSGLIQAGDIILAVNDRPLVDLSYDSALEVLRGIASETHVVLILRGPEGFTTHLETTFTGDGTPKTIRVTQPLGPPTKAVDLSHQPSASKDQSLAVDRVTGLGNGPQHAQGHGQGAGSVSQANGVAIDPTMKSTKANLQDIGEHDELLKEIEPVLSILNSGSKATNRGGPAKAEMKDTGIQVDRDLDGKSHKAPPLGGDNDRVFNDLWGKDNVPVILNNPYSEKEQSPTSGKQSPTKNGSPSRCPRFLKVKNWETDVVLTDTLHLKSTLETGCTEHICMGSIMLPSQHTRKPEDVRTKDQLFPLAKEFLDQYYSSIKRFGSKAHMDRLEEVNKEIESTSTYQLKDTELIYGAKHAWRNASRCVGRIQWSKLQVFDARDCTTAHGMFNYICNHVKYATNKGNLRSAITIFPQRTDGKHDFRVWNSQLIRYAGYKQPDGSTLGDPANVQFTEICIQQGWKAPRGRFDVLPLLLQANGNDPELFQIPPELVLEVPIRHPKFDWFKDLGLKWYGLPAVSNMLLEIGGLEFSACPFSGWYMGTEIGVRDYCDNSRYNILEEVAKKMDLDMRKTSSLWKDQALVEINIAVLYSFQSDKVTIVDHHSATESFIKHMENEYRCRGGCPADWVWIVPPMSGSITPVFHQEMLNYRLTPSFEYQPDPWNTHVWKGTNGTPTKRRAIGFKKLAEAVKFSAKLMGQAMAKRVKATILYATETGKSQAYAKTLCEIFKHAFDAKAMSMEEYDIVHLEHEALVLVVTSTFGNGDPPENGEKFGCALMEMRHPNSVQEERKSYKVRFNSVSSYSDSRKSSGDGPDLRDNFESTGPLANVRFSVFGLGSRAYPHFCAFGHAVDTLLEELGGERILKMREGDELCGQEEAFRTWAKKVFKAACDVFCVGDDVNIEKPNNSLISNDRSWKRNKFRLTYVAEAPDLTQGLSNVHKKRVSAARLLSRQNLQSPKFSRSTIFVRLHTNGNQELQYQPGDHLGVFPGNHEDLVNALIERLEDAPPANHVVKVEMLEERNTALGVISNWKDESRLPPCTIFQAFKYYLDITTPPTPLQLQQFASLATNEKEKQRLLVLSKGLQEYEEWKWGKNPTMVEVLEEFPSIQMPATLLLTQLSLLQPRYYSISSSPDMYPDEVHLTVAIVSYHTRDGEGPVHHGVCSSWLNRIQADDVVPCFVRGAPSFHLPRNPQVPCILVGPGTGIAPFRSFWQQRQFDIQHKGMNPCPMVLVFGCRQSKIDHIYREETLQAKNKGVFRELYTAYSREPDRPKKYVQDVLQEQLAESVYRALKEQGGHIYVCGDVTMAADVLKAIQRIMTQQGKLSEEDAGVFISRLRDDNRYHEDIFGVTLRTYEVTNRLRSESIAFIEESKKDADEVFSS

Row | SMILES | Ki [1] | Ki [2] | Ki [3] | Ki [4] | Papp at 17 h, 200 µM [5]
1 | CNCc1ccc(-c2cncc(CCc3cc(C)cc(N)n3)c2)cc1 | 100 nM |  | 57 nM | 4.21 µM | 
2 | Cc1cc(N)nc(CCc2cc(CCCN(C)C)cc(C(F)(F)F)c2)c1 |  |  | 541 nM | 36 µM | 
3 | Cc1cc(N)nc(CCc2cc(C#N)cc(CCCN(C)C)c2)c1 |  |  | 232 nM | 16.4 µM | 
4 | CNCCCc1cc(C#N)cc(CCc2cc(C)cc(N)n2)c1 | 516 nM | 42.1 µM | 252 nM | 16.2 µM | 
5 | CNCc1ccc(-c2cc(F)cc(CCc3cc(C)cc(N)n3)c2)cc1 | 362 nM | 69.9 µM | 185 nM | 10.9 µM | 

Other lines, results leading:

Row | Ki [1] | Ki [2] | Ki [3] | Ki [4] | Papp at 17 h, 200 µM [5] | SMILES
6 | 65 nM | 39.5 µM | 41 nM | 4.65 µM |  | CNCCCc1cc(F)cc(CCc2cc(C)cc(N)n2)c1
7 | 43 nM | 20.8 µM | 60 nM | 3.46 µM |  | Cc1cc(N)nc(CCc2cccc(CCCN(C)C)c2)c1
8 |  |  | 1700 nM | 6.7 µM |  | CNc1cccc(-c2cncc(CCc3cc(C)cc(N)n3)c2)c1
9 | 55 nM | 20.1 µM | 48 nM | 3.61 µM | 10.4 ×10⁻⁶ cm/s | CNCCCc1cccc(CCc2cc(C)cc(N)n2)c1
10 | 83 nM | 19.4 µM | 44 nM | 3.01 µM | 17.4 ×10⁻⁶ cm/s | CNCc1cccc(-c2cc(F)cc(CCc3cc(C)cc(N)n3)c2)c1
11 | 598 nM | 51.5 µM | 346 nM | 33.7 µM |  | CNCCCc1cc(CCc2cc(C)cc(N)n2)cc(C(F)(F)F)c1
12 | 82 nM | 8.67 µM | 47 nM | 3.01 µM | 5.56 ×10⁻⁶ cm/s | CNCc1cccc(-c2cncc(CCc3cc(C)cc(N)n3)c2)c1
